This is an account of results in ChEMBL document CHEMBL4130373, “Design, synthesis and biological evaluation of 4-anilinoquinoline derivatives as novel potent tubulin depolymerization agents” (Eur J Med Chem, 2017).

Where a name gives a salt, the structure may show the parent alone. The source made the active and inactive calls. The rule behind the calls is not given here. Where only a bound is given, the exact number is not on record here.

Data set [1] can be described thus: Resistance index, ratio of IC50 for human A2780T cells to IC50 for human A2780S cells. The class given is functional.
Data set [2] relates to A2780S. The data set is described as follows: Induction of alpha-tubulin depolymerization in human A2780S cells at 100 nM after 24 hrs by DAPI staining based immunofluorescence microscopic method. The class given is cell-based.
A short description of data set [3]: Resistance index, ratio of IC50 for human HCT8/T cells to IC50 for human HCT8 cells. The class given is functional.
A short description of data set [4]: Antiproliferative activity against human HCT8/T cells after 48 hrs by MTT assay. Conditions: HCT-8, 48 h. The class given is functional, cell-based.
The subject of a further data set is HCT-8. The data set can be described thus: Antiproliferative activity against human HCT8 cells after 48 hrs by MTT assay. It is filed as functional, cell-based. The settings on record: HCT-8, 48 h.
The test system of data set [5] is A2780S. The data set is described as follows: Antiproliferative activity against human A2780S cells after 48 hrs by MTT assay. The class given is functional, cell-based.
The subject of another data set is A2780/Taxol. The data set is described as follows: Antiproliferative activity against human A2780T cells after 48 hrs by MTT assay. It is filed as functional, cell-based.
A short description of data set [6]: Solubility of the compound in physiological saline at 1 mg. It is filed as physicochemical. Conditions: buffer.
Another data set relates to MDA-MB-231. The data set is described as follows: Antiproliferative activity against human MDA-MB-231 cells after 48 hrs by MTT assay. The class given is functional, cell-based. Conditions: MDA-MB-231, 48 h.
A short description of data set [7]: Antiproliferative activity against human HCT8/V cells after 48 hrs by MTT assay. Conditions: HCT-8, 48 h. The class given is functional, cell-based.
The nature of data set [8]: Resistance index, ratio of IC50 for human HCT8/V cells to IC50 for human HCT8 cells. It is filed as functional.
A further data set deals with A549. The data set is described as follows: Antiproliferative activity against human A549 cells after 48 hrs by MTT assay. The class given is functional, cell-based. Conditions: A549, 48 h.
In a further data set the test system is L02. The data set is described as follows: Antiproliferative activity against human LO2 cells after 48 hrs by MTT assay. It is filed as cell-based. Conditions: L02, 48 h.
In a further data set the test system is HepG2. The data set is described as follows: Binding affinity to beta-tubulin colchicine binding site in human HepG2 cells assessed as reduction in EBI-beta-tubulin adduct formation at 5 uM preincubated for 2 hrs followed by EBI addition measured after 1.5 hrs by Western blot analysis. The class given is cell-based.
A further data set has as its system HEK293. The data set can be described thus: Antiproliferative activity against HEK293 cells after 48 hrs by MTT assay. The class given is cell-based. The settings on record: Homo sapiens, HEK293, 48 h.
A further data set has as its system MCF7. The data set can be described thus: Antiproliferative activity against human MCF7 cells after 48 hrs by MTT assay. The class given is functional, cell-based. Conditions: MCF7, 48 h.
The subject of a further data set is NCI/ADR-RES. The data set is described as follows: Antiproliferative activity against human MCF7/ADR cells after 48 hrs by MTT assay. It is filed as functional, cell-based.
For a further data set, the system named is HCT-116. The data set can be described thus: Antitumor activity against human HCT116 cells xenografted in Balb/c athymic nude mouse assessed as tumor growth inhibition at 100 mg/kg, iv administered once in every 7 days measured on day 18 post treatment relative to control. The class given is functional. The settings on record: HCT-116, iv, read-out: TGI.

The next data set has as its system Mus musculus. The data set can be described thus: Toxicity in Balb/c athymic nude mouse xenografted with human HCT116 cells assessed as body weight loss at 100 mg/kg, iv administered once in every 7 days relative to control. It is filed as organism-based. Conditions: in vivo, 168 h.

Consider `CC(=O)O[C@H]1C(=O)[C@@]2(C)[C@H]([C@H](OC(=O)c3ccccc3)[C@]3(O)C[C@H](OC(=O)[C@H](O)[C@@H](NC(=O)c4ccccc4)c4ccccc4)C(C)=C1C3(C)C)[C@]1(OC(C)=O)CO[C@@H]1C[C@@H]2O` [PACLITAXEL], for which the results for the “Ratio IC50” value in data set [1] and in data set [3] were 2042.3 and 567.4, respectively. Besides, the outcome in the data set with A2780S [2] was inactive. Besides, the IC50 is 9880 nM in data set [4], 17.4 nM in the data set on HCT-8, 12.3 nM in the data set on A2780S [5] and 25100 nM in the data set on A2780/Taxol.
Consider `COc1ccc(N(C)c2cc(C)nc3ccccc23)cc1NC(=O)CN1CCCC(C)C1` (configuration not stated), for which the solubility entry in data set [6] is recorded as “Insoluble”. Further, inhibition with MDA-MB-231 was half-maximal at 394 nM (IC50).
On to `CCCC(=O)Nc1cc(N(C)c2cc(C)nc3ccccc23)ccc1OC`, for which the solubility result in data set [6] is on record as “Insoluble”. The compound further returned an IC50 in the data set with MDA-MB-231 of 58.4 nM.
`COc1ccc(N(C)c2ccnc3ccccc23)cc1`: the solubility entry in data set [6] is recorded as “Insoluble”. In the data set with MDA-MB-231, the IC50 was > 500 nM.
Turning to `CC[C@]1(O)C[C@@H]2CN(CCc3c([nH]c4ccccc34)[C@@](C(=O)OC)(c3cc4c(cc3OC)N(C)[C@H]3[C@@](O)(C(=O)OC)[C@H](OC(C)=O)[C@]5(CC)C=CCN6CC[C@]43[C@@H]65)C2)C1` [VINBLASTINE], the IC50 in [7] amounted to 2060 nM; with HCT-8 it was 20.2 nM. Besides, the “Ratio IC50” value in data set [8] is reported as 101.8.
As to `COc1ccc(N(C)c2ccnc3ccccc23)cc1N`, the solubility entry in data set [6] was “Soluble”. Also, in the data set on MDA-MB-231, the concentration for half-maximal inhibition (IC50) is > 500 nM.
`COc1ccc(N(C)c2cc(C)nc3ccccc23)cc1NC(=O)CCCCCl`: the solubility result in data set [6] was “Insoluble”. In the data set with MDA-MB-231, this compound returned an IC50 of 363 nM.
As for `COc1ccc(N(C)c2cc(C)nc3ccccc23)cc1NC(=O)CN(C)CCC#N`, the solubility entry in [6] is given as “Insoluble”. Further, the IC50 with MDA-MB-231 was > 500 nM.
For `CSc1ccc(N(C)c2cc(C)nc3ccccc23)cc1`, in [6], the solubility entry is given as “Soluble”. The IC50 with MDA-MB-231 worked out at 15.5 nM.
For `C=CC(=O)Nc1cc(N(C)c2cc(C)nc3ccccc23)ccc1OC`, the solubility result in [6] is recorded as “Soluble”. This compound also returned a concentration for half-maximal inhibition (IC50) in the data set with MDA-MB-231 of 43.4 nM.
The corresponding values for `COc1ccc(N(C)c2cc(C)nc3ccccc23)cc1NC(=O)CN1CCOCC1` are “Insoluble” and 256 nM.
As for `COc1cc2c(c(OC)c1OC)-c1ccc(OC)c(=O)cc1[C@@H](NC(C)=O)CC2` [COLCHICINE], the IC50 in the data set with A549 amounted to 32.7 nM; in the data set with L02, 26.5 nM; in the data set with HCT-8 it was 13.4 nM; in the data set on MDA-MB-231 it was 38.2 nM; with A2780S [5] it was 12.3 nM; in the data set on HEK293, 10.2 nM. Also, the midpoint of inhibition in the data set on MCF7, the IC50, lay at 13.4 nM. Moreover, the result in the data set on A2780S [2] and in the data set on HepG2 was Active.
Take `COc1ccc(N(C)c2cc(C)nc3ccccc23)cc1NC(=O)CN1CCSCC1`: the solubility result in [6] is given as “Soluble”. Further, the IC50 in the data set with MDA-MB-231 is > 500 nM.
Compound `COc1cccc2c1C(=O)c1c(O)c3c(c(O)c1C2=O)C[C@@](O)(C(=O)CO)C[C@@H]3O[C@H]1C[C@H](N)[C@H](O)[C@H](C)O1` [DOXORUBICIN HYDROCHLORIDE] yielded an IC50 in the data set on NCI/ADR-RES of 54800 nM.
As for `COC(=O)CCCC(=O)Nc1cc(N(C)c2cc(C)nc3ccccc23)ccc1OC`, in data set [6], the solubility entry was “Insoluble”. The compound further gave a half-inhibitory concentration (IC50) with MDA-MB-231 of 186 nM.
With `COc1ccc(N(C)c2cc(C)nc3ccccc23)cc1`, the solubility entry in data set [6] is “Insoluble”. Half-maximal inhibition with MDA-MB-231 (IC50) required 6.6 nM.
Taken in the same sequence, the figures for `COc1ccc(N(C)c2cc(C)nc3ccccc23)cc1NC(C)=O` were “Soluble” and 9.1 nM.
For `COC(=O)C(=O)Nc1cc(N(C)c2cc(C)nc3ccccc23)ccc1OC`, the solubility result in data set [6] is “Insoluble”. In the data set on MDA-MB-231, the IC50 is > 500 nM.
For the compound `COc1ccc(N(C)c2cc(C)nc3ccccc23)cc1NC(=O)CBr`, the solubility result in data set [6] was “Soluble”. Further, in the data set on MDA-MB-231, the IC50 is 87.2 nM.
On to `COc1ccc(N(C)c2cc(Cl)nc3ccccc23)cc1`, for which the solubility entry in data set [6] was “Insoluble”. For the same compound, in the data set on MDA-MB-231, the IC50 was > 500 nM.
Turning to `CSc1ccc(N(C)c2cc(C)nc3ccccc23)cc1N`, in data set [6], the solubility result is given as “Soluble”. The compound also had an IC50 in the data set with MDA-MB-231 of 9.5 nM.
Consider `CCC(=O)Nc1cc(N(C)c2cc(C)nc3ccccc23)ccc1OC`, for which the solubility result in data set [6] is “Soluble”. The compound also came in with an IC50 in the data set on MDA-MB-231 of 18.5 nM.
Taken in the same sequence, the figures for `COc1ccc(N(C)c2cc(C)nc3ccccc23)cc1NC(=O)CCl` were “Soluble” and 6.6 nM.
Consider `COc1ccc(N(C)c2cc(Cl)nc3ccccc23)cc1N`, for which the solubility result in data set [6] is “Insoluble”. The compound further had an IC50 in the data set on MDA-MB-231 of 43.1 nM.
Taken in the same sequence, the figures for `CCOC(=O)C(=O)Nc1cc(N(C)c2cc(C)nc3ccccc23)ccc1OC` were “Soluble” and 443 nM.
Take `COc1ccc(N(C)c2cc(C)nc3ccccc23)cc1N`: the solubility result in [6] is reported as “Insoluble”. In addition, in the data set on MDA-MB-231, the IC50 is 3.2 nM.
The corresponding values for `COc1ccc(N(C)c2cc(C)nc3ccccc23)cc1NC(=O)CCCl` are “Soluble” and 96.6 nM.
The corresponding values for `CCCCC(=O)Nc1cc(N(C)c2cc(C)nc3ccccc23)ccc1OC` are “Insoluble” and 82.4 nM.
With `O=c1[nH]cc(F)c(=O)[nH]1` [FLUOROURACIL], the inhibition in vivo at 100 mg/kg with HCT-116 stood at 60.8%. In addition, in the data set on Mus musculus, the Activity is < 10%.
For `COc1ccc(N(C)c2cc(C)nc3ccccc23)cc1NC(=O)CNCCNc1ccccc1`, in [6], the solubility entry is listed as “Insoluble”. The compound further showed an IC50 in the data set on MDA-MB-231 of 83.6 nM.
